According to patent US12152034B2, “FGFR inhibitors and methods of making and using the same” (Relay Therapeutics, Inc., priority 2020, dated 2024):
Entries after “also recorded” stand apart in the source; their conditions may differ. Each block holds one compound with its values, some of them ahead of it.

Assays:
Type in all cases: physicochemical
[1] = Solubility in Fasted State Simulated Intestinal Fluid (FaSSIF) and final pH in solution, salt screen of compound I-2; conditions: for Solubility in FaSSIF: Fasted State Simulated Intestinal Fluid, solids from salt screen in IPA; for Final pH: final pH in solution of the FaSSIF solubility sample
Method: (§1) The free base of Compound I-1 (compound I-2, 30 mg) was suspended in IPA (20 Vol., 600 μl at 50° C.). The suspensions were then cooled down to 5° C. at 0.1° C./min and were held at this temperature for 16 hrs. Stirring (500 rpm) was maintained throughout. Any gums that formed were maturated between 25 and 50° C. (4 hours at each temperature for 24 hrs). The suspensions were isolated by filtration under suction and air dried then analysed by XRPD. Any new patterns identified by XRPD were analysed further by NMR, TGA, DSC and stability at 40 C/75% RH for 1 week.
Several samples were analyzed for solubility in Fasted State Simulated Intestinal Fluid (FaSSIF) and final pH in solution.

[2] = Hygroscopicity suggested by Thermal Gravimetric Analysis (TGA) weight loss; conditions: suggested by TGA weight loss / 1H NMR solvent content
Method: Thermal Gravimetric Analysis (TGA): TGA data was collected on a TA Instruments Q5000 TGA. A predefined amount of the sample, 2.0 to 10.0 mg, was placed in an aluminum pan and heated at 10° C./minute from 40° C. to 300° C., or varied as experimentation dictated. A purge of dry nitrogen at 25 ml/minute was maintained over the sample. The instrument control and data acquisition are acquired using Q Advantage software release version 5.5.23. The data was processed and presented using the TA Universal Analysis 2000 software version 4.5A build 4.5.0.5.

[3] = Solubility assessment in solvents by aliquot addition (5-40 vol, 25° C., then heating); conditions: for solubility (solvent volumes to give a clear solution): 25° C.
Method: Compound II-1 (40 mg) was treated with an aliquot of solvent (200 μl for 5 vol, 400 μl for 10 vol, 800 μl for 20 vol) and left to stir at 25° C. for 15 minutes. After 15 minutes, suspensions were treated with another aliquot of solvent and left to stir for the same duration again. Any solutions were removed from stirring and further solvent additions. This procedure was repeated up to 40 vol.
At 40 vol, any remaining suspensions were heated to 40° C. at a rate of 10° C./min. Samples that remained as suspensions at 40° C. were moved to the maturation chamber (RT/50° C.) for 4 days. All solutions from solvent additions were heated to 50° C. before cooling to 5° C. at a rate of 0.1° C./min, then held at 5° C. overnight. […]

[4] = Storage at 40° C./75% RH for 7 days (one week), form checked by XRPD; conditions: 40° C./75% RH, one week (7 days)
Method: as §1, with “The” for “The free base of Compound I-1 (compound I-2, 30 mg) was suspended in IPA (20 Vol., 600 μl at 50° C.). The”

Solubility in FaSSIF ([1]; listed as HBr - Form A): 4.5 µg/mL
Final pH ([1]; listed as HBr - Form A): 5.5
SMILES: C=C(C)C(=O)Nc1ccc(-c2c(-c3ccc(Oc4nccc(C)n4)c(F)c3)c3c(N)ncnc3n2C)cc1 [Compound I-3]

Solubility in FaSSIF ([1]; listed as Sulfate - Form B): 1.2 µg/mL
Final pH ([1]; listed as Sulfate - Form B): 5.86
SMILES: C=C(C)C(=O)Nc1ccc(-c2c(-c3ccc(Oc4nccc(C)n4)c(F)c3)c3c(N)ncnc3n2C)cc1 [Compound I-4]

Solubility in FaSSIF ([1]; listed as Mesylate - Form A): 6.5 µg/mL
Final pH ([1]; listed as Mesylate - Form A): 4.82
SMILES: C=C(C)C(=O)Nc1ccc(-c2c(-c3ccc(Oc4nccc(C)n4)c(F)c3)c3c(N)ncnc3n2C)cc1 [Compound I-6]

SMILES: C=C(C)C(=O)Nc1ccc(-c2c(C3=CC[C@H](C(=O)N4CCCC4)CC3)c3c(N)ncnc3n2C)c(C)c1 [Compound II-1, (R)—N-(4-(4-amino-7-methyl-5-(4-(pyrrolidine-1-carbonyl)cyclohex-1-en-1-yl)-7H-pyrrolo[2,3-d]pyrimidin-6-yl)-3-methylphenyl)methacrylamide]
hygroscopicity (in words) ([2]; listed as Compound 1 Pattern 2): hygroscopic
hygroscopicity (in words) ([2]; listed as Compound II-1 Form A): slightly hygroscopic
solubility (solvent volumes to give a clear solution) ([3]; 10% H2O/IPA): 10 vol
solubility in the solvents tested (in words) ([3]; 13 solvents, up to 40 vol): reasonable solubility in polar solvents
solubility (solvent volumes to give a clear solution) ([3]; THF): 20 vol
solubility (solvent volumes to give a clear solution) ([3]; ethanol): 20 vol
XRPD after storage at 40° C./75% RH for 7 days ([4]; listed as Compound II-1 Form A): no change; also recorded: Unchanged
XRPD after storage at 40° C./75% RH for 7 days ([4]; listed as Compound II-1 Form B): Unchanged

SMILES: C=C(C)C(=O)Nc1ccc(-c2c(C3=CC[C@H](C(=O)N4CCCC4)CC3)c3c(N)ncnc3n2C)c(C)c1.CS(=O)(=O)O [Compound II-5]
hygroscopicity (in words) [2]: hygroscopic
XRPD after storage at 40° C./75% RH for 7 days [4]: no change
